Usually IC50 stands for the concentration needed to halve the response being measured. A lower IC50 goes with greater potency.

These results are taken from patent US11352394B2, “Cyclic cell penetrating peptides comprising beta-hairpin motifs and methods of making and using thereof” (Ohio State Innovation Foundation, priority 2016, dated 2022).

Values joined by “and” are separate entries in the source; they are usually repeats but may differ in a detail not shown here. Identical values can stand only once. Bridge positions count the residues as written; N and C are the ends. Square brackets hold non-standard residues; d marks the D form. Ends that are not written are not given here. Peptide text beside a SMILES is read from it. Phe(4-F) = N[C@@H](Cc1ccc(F)cc1)C(=O)O; 2Nal = N[C@@H](Cc1ccc2ccccc2c1)C(=O)O; d2Nal = N[C@H](Cc1ccc2ccccc2c1)C(=O)O; Dap = NC[C@H](N)C(=O)O

In one experiment the target is Keap1-Nrf2 interaction (Homo sapiens, UniProt Q14145). In words: Fluorescence anisotropy-based competition assay, inhibition of Keap1-Nrf2 peptide interaction. Format: binding. The procedure: The percentage of inhibition was calculated from the fluorescence anisotropy decrease by using equation % Inhibition=(FAmax−FAobs)/(FAmax−FAmin)×100% and plotted against the inhibitor concentration.
On the technique in general: Polarisation of emitted light reports the rotation of a fluorescent probe.

The test system of another experiment is HeLa cells. In words: Cellular (cytosolic) uptake of NF-labeled peptides by flow cytometry (MFI). Format: cell-based. The settings on record: for Cellular Uptake (MFI^NF, %), cytosolic delivery efficiency of CPPs without beta-hairpin moiety: relative to CPP 1 (100%), mean ± S.D. of three independent experiments; for Cellular Uptake (MFINF, %): relative to CPP1 (100%); for Improvement of cytosolic entry efficiency relative to BH4: D-amino acid diastereomers of BH4; for Cellular Uptake (MFI^NF, %) of β-hairpin transporters: 5 μM peptide. The procedure: HeLa cells were treated with 5 μM peptide for 2 h, and their cell uptake efficiencies were determined by flow cytometry analysis. The mean fluorescence intensity (MFI) values derived from cytometry analyses reflect the amounts of peptides inside the cytosol and nucleus, whereas any NF-labeled peptide entrapped inside the acidic endosomes are invisible under the experimental conditions (Id.; Qian, Z et al. Chem. Commun. 2015, 51, 2162-2165).
The binding affinity of BH23 (unlabeled) for the Grb2 SH2 domain was then determined by examining its ability to compete with the FAM-labeled ligand for binding to the Grb2 SH2 domain by fluorescence polarization (FP). […] Next, BH23 was labeled with NF at the Asn side chain through a miniPEG-Lys linker and its cytosolic entry efficiency was quantitated by treating HeLa cells with 5 μM of the labeled peptide for 2 h before flow cytometry analysis. […] BH23 was also similarly labeled at the Asn side chain with FAM and its entry into HeLa cells was examined by live-cell confocal microscopy. […] Two control peptides (BH24 and BH25) were also prepared for cellular assays. BH24 and BH25 are structurally similar to BH23, except that BH24 contained a Tyr instead of the pY residue (FIG. 11), whereas in BH25 the two hydrophobic residues critical for cellular uptake (Nal-arg) were replaced with Ala-ala (FIG. 12).
BHT1 and BHT2 were labeled with naphthofluorescein (NF) and their cytosolic uptake into HeLa cells was determined by flow cytometry (Table 10).
Additional cell penetrating compounds were prepared and tested for cytosolic delivery. In these compounds there was no beta-hairpin turn creating moiety.
In general terms: In flow cytometry, cells or beads pass a laser one at a time.

Setting [1] is: HeLa cells, 5 μM NF-labeled peptide, 2 h, flow cytometry.
Where [2] appears, read: HeLa cells, 2 h, DMEM with 10% FBS and 1% ABS, relative to CPP9 (100%).

Chain of Keap1-Nrf2 interaction (Q14145 321-609 limits assumed): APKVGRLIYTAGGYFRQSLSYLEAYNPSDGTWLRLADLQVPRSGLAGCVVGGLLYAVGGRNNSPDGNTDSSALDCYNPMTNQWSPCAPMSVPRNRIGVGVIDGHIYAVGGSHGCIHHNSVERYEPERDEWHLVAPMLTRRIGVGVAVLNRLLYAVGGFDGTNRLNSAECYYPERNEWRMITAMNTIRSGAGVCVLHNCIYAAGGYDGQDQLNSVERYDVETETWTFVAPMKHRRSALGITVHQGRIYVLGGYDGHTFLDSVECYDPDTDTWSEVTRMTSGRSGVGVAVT

For `CC(C)C[C@@H]1NC(=O)[C@H](CCC(N)=O)NC(=O)[C@H](Cc2ccccc2)NC(=O)[C@H](CCCNC(=N)N)NC(=O)[C@H](CCCNC(=N)N)NC(=O)[C@@H]2CCCN2C(=O)[C@H]2CCCN2C(=O)[C@@H](CCCNC(=N)N)NC(=O)[C@H](Cc2ccc3ccccc3c2)NC(=O)[C@H](Cc2ccccc2)NC(=O)[C@H](Cc2ccccc2)NC(=O)[C@H](CCC(=O)O)NC(=O)CNC(=O)[C@H]([C@@H](C)O)NC(=O)[C@H](CCC(=O)O)NC(=O)[C@H](C)NC(=O)[C@H](CC(N)=O)NC1=O` [BH14, cyclo(F-F-Φ-r-p-P-R-R-F-Q-L-N-A-E-T-G-E)] (cyclo(FF[2Nal][dR][dP]PRRFQLNAETGE)), the “Decrease of affinity for Keap1 / inhibition potency” value on Keap1-Nrf2 interaction (Asn-Ala analogues vs Asp-Pro parents (BH13, BH15, BH17), BH19: truncation of cargo to 6-aa) is given as approximately 10 fold. Besides, on Keap1-Nrf2 interaction (FA competition with fluorescently labeled Nrf2 peptide and Keap1), the IC50 was found to be 1400 ± 130 nM.

With 264 (RRFFFRRQ; cyclic) [Peptide 264], in the experiment on HeLa cells, the “Cellular Uptake (MFI^NF, %), cytosolic delivery efficiency of CPPs without beta-hairpin moiety” value was 112 ± 20%.

As for “cyclo(A-A-F-Φ-F-p-P-R-R-R-A-A-A-Q)-miniPEG-K(NF) (cyclo(AAF[2Nal]F[dP]PRRRAAAQ); not fully specified (residue 14); printed as cyclo(A-A-F-Φ-F-p-P-R-R-R-A-A-A-Q)-miniPEG-K(NF)) [BH3]”, the “Cellular Uptake (MFINF, %)” value in the experiment with HeLa cells (setting [1]) turned out to be 30 ± 6%.

For the compound “259 (cyclo(G[2Nal]RRRRQ); SMILES N=C(N)NCCC[C@@H]1NC(=O)[C@H](Cc2ccc3ccccc3c2)NC(=O)CNC(=O)[C@H](CCC(N)=O)NC(=O)[C@H](CCCNC(=N)N)NC(=O)[C@H](CCCNC(=N)N)NC(=O)[C@H](CCCNC(=N)N)NC1=O) [Peptide 259]”, in the experiment on HeLa cells, the “Cellular Uptake (MFI^NF, %), cytosolic delivery efficiency of CPPs without beta-hairpin moiety” value amounted to 55 ± 5%.

In the case of “cyclo(A-A-F-Φ-r-p-P-R-R-F-A-A-A-Q)-miniPEG-K(NF) (cyclo(AAF[2Nal][dR][dP]PRRFAAAQ); not fully specified (residue 14); printed as cyclo(A-A-F-Φ-r-p-P-R-R-F-A-A-A-Q)-miniPEG-K(NF)) [BH6]”, in the experiment with HeLa cells (setting [1]), the “Cellular Uptake (MFINF, %)” value was 431 ± 169%. For the same compound, the “Improvement of cytosolic entry efficiency relative to BH4” value in the experiment on HeLa cells (HeLa cells) came to 6 fold.

Consider 253 (FFRFRRQ; cyclic) [Peptide 253], for which the “Cellular Uptake (MFI^NF, %), cytosolic delivery efficiency of CPPs without beta-hairpin moiety” value with HeLa cells came to 106 ± 22%.

As for “cyclo(A-A-F-Φ-R-p-P-r-R-F-A-A-A-Q)-miniPEG-K(NF) (cyclo(AAF[2Nal]R[dP]P[dR]RFAAAQ); not fully specified (residue 14); printed as cyclo(A-A-F-Φ-R-p-P-r-R-F-A-A-A-Q)-miniPEG-K(NF)) [BH5]”, in the experiment on HeLa cells (setting [1]), the “Cellular Uptake (MFINF, %)” value was 102 ± 45%. Besides, the “Improvement of cytosolic entry efficiency relative to BH4” value with HeLa cells (HeLa cells) is recorded as “only minor effect”.

As for 269 (FFFRRRRRRQ; cyclic) [Peptide 269], the “Cellular Uptake (MFI^NF, %), cytosolic delivery efficiency of CPPs without beta-hairpin moiety” value with HeLa cells is 141 ± 10%.

As for “cyclo(f-Φ-R-r-R-r-Q)-miniPEG-K(NF) (cyclo([dF][2Nal]R[dR]R[dR]Q); not fully specified (residue 7); printed as cyclo(f-Φ-R-r-R-r-Q)-miniPEG-K(NF)) [CPP9, reference compound]”, the “Cellular Uptake (MFI^NF, %), cytosolic entry efficiency” value in the experiment on HeLa cells (HeLa cells, 5 μM NF-labeled peptide, 2 h, DMEM with 10% FBS and 1% ABS, relative to CPP9 (100%)) came out at 100%. Besides, the “Cellular Uptake (MFI^NF, %) of β-hairpin transporters” value in the experiment with HeLa cells (setting [2]) was 100%.

Regarding 268 (FFFRRRRRQ; cyclic) [Peptide 268], the “Cellular Uptake (MFI^NF, %), cytosolic delivery efficiency of CPPs without beta-hairpin moiety” value in the experiment with HeLa cells was determined as 145 ± 27%.

Consider “281 (Ac-K[dF]FR[dR]R[dR]D; lactam 1-8 (inferred); not fully specified; printed as Ac-(Lys-fFRrRrD)) [Peptide 281]”, for which the “Cellular Uptake (MFI^NF, %), cytosolic delivery efficiency of CPPs without beta-hairpin moiety” value with HeLa cells was 129 ± 9%.

Consider 241 (FFFRAQ; cyclic) [Peptide 241], for which the “Cellular Uptake (MFI^NF, %), cytosolic delivery efficiency of CPPs without beta-hairpin moiety” value in the experiment with HeLa cells is reported as 52 ± 2%.

As to “285 (CFWRRRRC; disulfide 1-8) [Peptide 285]”, the “Cellular Uptake (MFI^NF, %), cytosolic delivery efficiency of CPPs without beta-hairpin moiety” value with HeLa cells was found to be 49%.

With “282 (Ac-[Dap][dF]FR[dR]R[dR]D; lactam 1-8 (inferred); not fully specified; printed as Ac-(Dap-fFRrRrD)) [Peptide 282]”, the “Cellular Uptake (MFI^NF, %), cytosolic delivery efficiency of CPPs without beta-hairpin moiety” value in the experiment on HeLa cells was determined as 126 ± 33%.

In the case of “273 (cyclo([dF]F[dF][dR]R[dR]Q); SMILES N=C(N)NCCC[C@@H]1NC(=O)[C@@H](CCCNC(=N)N)NC(=O)[C@@H](Cc2ccccc2)NC(=O)[C@H](Cc2ccccc2)NC(=O)[C@@H](Cc2ccccc2)NC(=O)[C@H](CCC(N)=O)NC(=O)[C@@H](CCCNC(=N)N)NC1=O) [Peptide 273]”, the “Cellular Uptake (MFI^NF, %), cytosolic delivery efficiency of CPPs without beta-hairpin moiety” value in the experiment with HeLa cells was found to be 463 ± 94%.

For the compound 242 (FFFRRQ; cyclic) [Peptide 242], the “Cellular Uptake (MFI^NF, %), cytosolic delivery efficiency of CPPs without beta-hairpin moiety” value in the experiment with HeLa cells is 125 ± 25%.

Consider “cyclo(FΦrpPRRFAQ)-miniPEG-K(NF) (cyclo(F[2Nal][dR][dP]PRRFAQ); not fully specified (residue 10); printed as cyclo(FΦrpPRRFAQ)-miniPEG-K(NF)) [BHT2]”, for which the “Cellular Uptake (MFI^NF, %) of β-hairpin transporters” value with HeLa cells (setting [2]) was 15% and 15 ± 2%.

As for “cyclo(A-A-F-φ-R-p-P-R-R-F-A-A-A-Q)-miniPEG-K(NF) (cyclo(AAF[d2Nal]R[dP]PRRFAAAQ); not fully specified (residue 14); printed as cyclo(A-A-F-φ-R-p-P-R-R-F-A-A-A-Q)-miniPEG-K(NF)) [BH8]”, in the experiment on HeLa cells (setting [1]), the “Cellular Uptake (MFINF, %)” value was 235%. For the same compound, the “Improvement of cytosolic entry efficiency relative to BH4” value with HeLa cells (HeLa cells) is on record as 3 fold.

Consider 234 (FFRRRQ; cyclic) [Peptide 234], for which the “Cellular Uptake (MFI^NF, %), cytosolic delivery efficiency of CPPs without beta-hairpin moiety” value in the experiment with HeLa cells was found to be 65%.

On to “cyclo(D-A-F-Φ-r-p-P-R-R-F-D-A-D-Q)-miniPEG-K(NF) (cyclo(DAF[2Nal][dR][dP]PRRFDADQ); not fully specified (residue 14); printed as cyclo(D-A-F-Φ-r-p-P-R-R-F-D-A-D-Q)-miniPEG-K(NF)) [BH10]”, for which the “Cellular Uptake (MFINF, %)” value with HeLa cells (setting [1]) stood at 44 ± 19%. Further, the “Cellular entry / delivery efficiency (in words)” value with HeLa cells (HeLa cells, flow cytometry) is on record as “lowest delivery efficiency”.

With “278 (cyclo([d2Nal]F[dF][dR]R[dR]Q); also: further D-residues, places not given here) [Peptide 278]”, the “Cellular Uptake (MFI^NF, %), cytosolic delivery efficiency of CPPs without beta-hairpin moiety” value in the experiment with HeLa cells is given as 50 ± 9%.

For the compound “cyclo(R-A-F-Φ-r-p-P-R-R-F-R-A-R-Q)-miniPEG-K(NF) (cyclo(RAF[2Nal][dR][dP]PRRFRARQ); not fully specified (residue 14); printed as cyclo(R-A-F-Φ-r-p-P-R-R-F-R-A-R-Q)-miniPEG-K(NF)) [BH9]”, the “Cellular Uptake (MFINF, %)” value with HeLa cells (setting [1]) is 104 ± 27%.

Regarding “271 (cyclo([Phe(4-F)][Phe(4-F)]RRRRQ); SMILES N=C(N)NCCC[C@@H]1NC(=O)[C@H](CCCNC(=N)N)NC(=O)[C@H](CCCNC(=N)N)NC(=O)[C@H](Cc2ccc(F)cc2)NC(=O)[C@H](Cc2ccc(F)cc2)NC(=O)[C@H](CCC(N)=O)NC(=O)[C@H](CCCNC(=N)N)NC1=O) [Peptide 271]”, the “Cellular Uptake (MFI^NF, %), cytosolic delivery efficiency of CPPs without beta-hairpin moiety” value in the experiment on HeLa cells is 165 ± 22%.

Consider 263 (RFFFRRRQ; cyclic) [Peptide 263], for which the “Cellular Uptake (MFI^NF, %), cytosolic delivery efficiency of CPPs without beta-hairpin moiety” value in the experiment on HeLa cells worked out at 167 ± 10%.

As for “275 (cyclo(F[dF]F[dR]R[dR]Q); SMILES N=C(N)NCCC[C@@H]1NC(=O)[C@@H](CCCNC(=N)N)NC(=O)[C@H](Cc2ccccc2)NC(=O)[C@@H](Cc2ccccc2)NC(=O)[C@H](Cc2ccccc2)NC(=O)[C@H](CCC(N)=O)NC(=O)[C@@H](CCCNC(=N)N)NC1=O) [Peptide 275]”, in the experiment on HeLa cells, the “Cellular Uptake (MFI^NF, %), cytosolic delivery efficiency of CPPs without beta-hairpin moiety” value is recorded as 236 ± 26%.

As for 266 (FFRRRRFQ; cyclic) [Peptide 266], the “Cellular Uptake (MFI^NF, %), cytosolic delivery efficiency of CPPs without beta-hairpin moiety” value with HeLa cells stood at 162 ± 16%.

As for “131 (cyclo(F[2Nal]RRRRQ); SMILES N=C(N)NCCC[C@@H]1NC(=O)[C@H](CCCNC(=N)N)NC(=O)[C@H](CCCNC(=N)N)NC(=O)[C@H](Cc2ccc3ccccc3c2)NC(=O)[C@H](Cc2ccccc2)NC(=O)[C@H](CCC(N)=O)NC(=O)[C@H](CCCNC(=N)N)NC1=O) [Peptide 131]”, the “Cellular Uptake (MFI^NF, %), cytosolic delivery efficiency of CPPs without beta-hairpin moiety” value with HeLa cells was determined as 100 ± 6%.

For the compound “cyclo(S-A-S-F-Φ-r-p-P-R-R-F-S-A-S-A-Q)-miniPEG-K(NF) (cyclo(SASF[2Nal][dR][dP]PRRFSASAQ); not fully specified (residue 16); printed as cyclo(S-A-S-F-Φ-r-p-P-R-R-F-S-A-S-A-Q)-miniPEG-K(NF)) [BH11]”, the “Cellular Uptake (MFINF, %)” value with HeLa cells (setting [1]) turned out to be 245 ± 16%.
